ChEMBL document CHEMBL3044543, “Synthetic sialic-acid-containing polyvalent antiviral inhibitors” (Med Chem Res, 2009)

Legend:
[1] = target: Hemagglutinin (Influenza A virus) (UniProt K7N5L2); assay: Inhibition of Influenza virus A/H3N2/NIB/44/90M Hemagglutinin after 2 hr by horseradish peroxidase assay relative to Neu5Aalpha
Hemagglutinin = Hemagglutinin (Influenza A virus, UniProt K7N5L2); assay: Binding affinity to Influenza virus A Hemagglutinin

Compound `CC(=O)N[C@H]1[C@H]([C@H](O)[C@H](O)CO)OC(OCc2ccc(NC(=O)CNC(=O)CCCCC(=O)NCC(=O)NCC(=O)NCC(=O)NCC(=O)NCC(=O)NCC(=O)NCC(=O)NCC(CNC(=O)CNC(=O)CNC(=O)CNC(=O)CNC(=O)CNC(=O)CNC(=O)CNC(=O)CCCCC(=O)NCC(=O)Nc3ccc(COC4(C(=O)O)C[C@H](O)[C@@H](NC(C)=O)[C@H]([C@H](O)[C@H](O)CO)O4)cc3)(CNC(=O)CNC(=O)CNC(=O)CNC(=O)CNC(=O)CNC(=O)CNC(=O)CNC(=O)CCCCC(=O)NCC(=O)Nc3ccc(COC4(C(=O)O)C[C@H](O)[C@@H](NC(C)=O)[C@H]([C@H](O)[C@H](O)CO)O4)cc3)CNC(=O)CNC(=O)CNC(=O)CNC(=O)CNC(=O)CNC(=O)CNC(=O)CNC(=O)CCCCC(=O)NCC(=O)Nc3ccc(COC4(C(=O)O)C[C@H](O)[C@@H](NC(C)=O)[C@H]([C@H](O)[C@H](O)CO)O4)cc3)cc2)(C(=O)O)C[C@@H]1O` (some centres not stated) has a Ratio [1] of 1000.
In the case of `CC(=O)N[C@H]1[C@H]([C@H](O)[C@H](O)CO)OC(OCCCCCCC(=O)NCc2cccc3ccccc23)(C(=O)O)C[C@@H]1OC(=O)CNS(=O)(=O)c1cccc2c(N(C)C)cccc12` (some centres not stated), the IC50 (Hemagglutinin) is reported as 3 mM.
